Type in all cases: cell-based
Experiment [1] relates to A431 (epidermoid carcinoma). Kind of experiment: Antiproliferative activity (CCK-8 cell viability), A431. The settings on record: Homo sapiens, 72 h, read-out: Antiproliferative activity in cancerous cells, A431 (inhibition of cell growth); for inhibition at 3.3 µM: A-431, Compound concentration: 3.3 μM; for inhibition at 10 µM: A-431, Compound concentration: 10 μM. The method in brief:
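A431 epidermoid carcinoma cells grown in DMEM with 10% FBS were plated at 2,000-5,000 cells/well in 96-well plates. After attachment they were exposed to compound at 3.3 μM, 10 μM, or 30 μM for 72 h at 37° C. Viability was then assessed by CCK-8 against DMSO vehicle-treated wells.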

Experiment [2] relates to SW480 (colon cancer). Briefly: Antiproliferative activity (CCK-8 cell viability), SW480. The note with it: Homo sapiens, 72 h, read-out: Antiproliferative activity in cancerous cells, SW480 (inhibition of cell growth); for inhibition at 3.3 µM: Compound concentration: 3.3 μM; for inhibition at 10 µM: Compound concentration: 10 μM. A digest of the protocol:
(§1)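 Cells grown in DMEM (HepG2, SW480), MEM (HeLa) or F-12K (A549), each with 10% FBS, then exposed to compound at 3.3, 10 or 30 μM for 72 h at 37 °C. CCK-8 absorbance at 450 nm; viability expressed as percent of DMSO-treated cells, graded as growth inhibition bands.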

Experiment [3] has as its system HeLa (cervical cancer). Briefly: Antiproliferative activity (CCK-8 cell viability), HeLa. The settings on record: Homo sapiens, 72 h, read-out: Antiproliferative activity in cancerous cells, HELA (inhibition of cell growth); for inhibition at 3.3 µM: Compound concentration: 3.3 μM; for inhibition at 10 µM: Compound concentration: 10 μM. The method in brief:
as §1

The subject of experiment [4] is MDA-MB-231 (breast cancer). Kind of experiment: Antiproliferative activity (CCK-8 cell viability), MDA-MB-231. The note with it: Homo sapiens, 72 h, read-out: Antiproliferative activity in cancerous cells, MDA-MB-231 (inhibition of cell growth); for inhibition at 3.3 µM: Compound concentration: 3.3 μM; for inhibition at 10 µM: Compound concentration: 10 μM. The method in brief: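 MDA-MB-231 breast cancer cells, grown in DMEM with 10% FBS, were plated in 96-well plates at 2,000-5,000 cells/well. Once attached, they were exposed to compound and incubated at 37° C. for 72 h. Viability was then measured with CCK-8 (10 μL per well, 4 h at 37° C.) by absorbance at 450 nm, relative to DMSO vehicle wells.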

Experiment [5] relates to A549 (lung adenocarcinoma). Kind of experiment: Antiproliferative activity (CCK-8 cell viability), A549. The note with it: Homo sapiens, 72 h, read-out: Antiproliferative activity in cancerous cells, A549 (inhibition of cell growth); for inhibition at 3.3 µM: Compound concentration: 3.3 μM; for inhibition at 10 µM: Compound concentration: 10 μM. The method in brief:
as §1

In experiment [6] the test system is B16F10 (malignant melanoma). Kind of experiment: Antiproliferative activity (CCK-8 cell viability), B16F10. The note with it: Mus musculus, 72 h, read-out: Antiproliferative activity in cancerous cells, B16F10 (inhibition of cell growth); for inhibition at 3.3 µM: B16-F10, Compound concentration: 3.3 μM; for inhibition at 10 µM: B16-F10, Compound concentration: 10 μM. A digest of the protocol: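 B16F10 melanoma cells grown in DMEM with 10% FBS were plated in 96-well plates at 2,000-5,000 cells/well. After attachment they were exposed to compound in medium for 72 h at 37° C. CCK-8 solution (10 μL) was then added, and after 4 h at 37° C absorbance was read at 450 nm.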

Experiment [7] concerns HepG2 (liver cancer). Kind of experiment: Antiproliferative activity (CCK-8 cell viability), HepG2. The settings on record: Homo sapiens, 72 h, read-out: Antiproliferative activity in cancerous cells, HepG2 (inhibition of cell growth); for inhibition at 3.3 µM: Compound concentration: 3.3 μM; for inhibition at 10 µM: Compound concentration: 10 μM. The method in brief:
as §1

Consider seven molecules from patent publication US20260184663A1, “INDENE COMPOUNDS, PHARMACEUTICAL COMPOSITIONS THEREOF, AND THEIR THERAPEUTIC APPLICATIONS” (NucMito Pharmaceuticals co. Ltd., priority 2022, published 2026).

What is called inhibition is the share of the control response that was lost under treatment. In the case of `CCc1ccc2c(c1)C(CC(=O)O)=C(C)/C2=C/c1cccc(COc2ccc(F)cc2)c1` [B71, (Z)-2-(5-Ethyl-1-(3-((4-fluorophenoxy)methyl)benzylidene)-2-methyl-1H-inden-3-yl)acetic acid], the inhibition at 3.3 µM in experiment [1] was at least 50%; in experiment [2], under 30%; in experiment [3], under 30%; in experiment [4], under 30%; in experiment [5], 30 to 50%; in experiment [6], under 30%. Also, the inhibition at 3.3 µM in experiment [7] is under 30%. Moreover, the inhibition at 10 µM in experiment [1] was at least 50%; in experiment [2], under 30%; in experiment [3], at least 50%; in experiment [4] it was at least 50%; in experiment [5], at least 50%; in experiment [6], at least 50%. The inhibition at 10 µM in experiment [7] was under 30%.

In the case of `CCc1ccc2c(c1)C(CC(=O)O)=C(C)/C2=C/c1ccc(COCc2ccc(Cl)cc2)cc1` [B122, (Z)-2-(1-(4-(((4-Chlorobenzyl)oxy)methyl)benzylidene)-5-ethyl-2-methyl-1H-inden-3-yl)acetic acid], the inhibition at 3.3 µM was at least 50% in experiment [1]; 30 to 50% in experiment [2]; under 30% in experiment [3]; under 30% in experiment [4]; 30 to 50% in experiment [5]; 30 to 50% in experiment [6]. In experiment [7], the inhibition at 3.3 µM was at least 50%. Moreover, the inhibition at 10 µM in experiment [1], in experiment [2], in experiment [3], in experiment [4], in experiment [5] and in experiment [6] was at least 50% throughout. The inhibition at 10 µM in experiment [7] is at least 50%.

In the case of `CC1=C(CC(=O)O)c2cc(F)ccc2/C1=C\c1ccc(CCCc2ccc(Cl)cc2)cc1` [B119, (Z)-2-(1-(4-(3-(4-Chlorophenyl)propyl)benzylidene)-5-fluoro-2-methyl-1H-inden-3-yl)acetic acid], the inhibition at 3.3 µM in experiment [1] was at least 50%; in experiment [2], at least 50%; in experiment [3], under 30%; in experiment [4] it was under 30%; in experiment [5] it was 30 to 50%; in experiment [6], under 30%. For the same molecule, in experiment [7], the inhibition at 3.3 µM was at least 50%. Also, the inhibition at 10 µM in experiment [1] is at least 50%; in experiment [2], at least 50%; in experiment [3], at least 50%; in experiment [4], under 30%; in experiment [5], at least 50%; in experiment [6], at least 50%. Moreover, the inhibition at 10 µM in experiment [7] is at least 50%.

Turning to `CC1=C(CC(=O)O)c2cc(F)ccc2/C1=C\c1cccc(Oc2ccc(Br)cc2)c1` [C97, (Z)-2-(1-(3-(4-Bromophenoxy)benzylidene)-5-fluoro-2-methyl-1H-inden-3-yl)acetic acid], the inhibition at 3.3 µM was under 30% in experiment [1]; under 30% in experiment [2]; under 30% in experiment [3]; under 30% in experiment [4]; under 30% in experiment [5]; 30 to 50% in experiment [6]. Moreover, the inhibition at 3.3 µM in experiment [7] was under 30%. Besides, the inhibition at 10 µM in experiment [1] is under 30%; in experiment [2], under 30%; in experiment [3], at least 50%; in experiment [4], under 30%; in experiment [5] it was 30 to 50%; in experiment [6], at least 50%. For the same molecule, the inhibition at 10 µM in experiment [7] is at least 50%.

Turning to `CC1=C(CC(=O)O)c2cc(Br)ccc2/C1=C\c1ccc(Oc2ccc(Cl)cc2)cc1` [C77, (Z)-2-(5-Bromo-1-(4-(4-chlorophenoxy)benzylidene)-2-methyl-1H-inden-3-yl)acetic acid], the inhibition at 3.3 µM in experiment [1] was under 30%; in experiment [2] it was under 30%; in experiment [3], at least 50%; in experiment [4], at least 50%; in experiment [5] it was under 30%; in experiment [6], at least 50%. Further, in experiment [7], the inhibition at 3.3 µM lay within 30 to 50%. Further, the inhibition at 10 µM in experiment [1] was under 30%; in experiment [2], 30 to 50%; in experiment [3] it was at least 50%; in experiment [4], at least 50%; in experiment [5] it was at least 50%; in experiment [6] it was at least 50%. In addition, in experiment [7], the inhibition at 10 µM was at least 50%.

As for `CC1=C(CC(=O)O)c2cc(F)ccc2/C1=C\c1cccc(-c2ccc(C(F)(F)F)cc2)c1` [D1, (Z)-2-(5-Fluoro-2-methyl-1-((4′-(trifluoromethyl)-[1,1′-biphenyl]-3-yl)-methylene)-1H-inden-3-yl)acetic acid], the inhibition at 3.3 µM in experiment [1] was 30 to 50%; in experiment [2], under 30%; in experiment [3] it was at least 50%; in experiment [4], under 30%; in experiment [5] it was under 30%; in experiment [6], under 30%. In experiment [7], the inhibition at 3.3 µM lay in the range of 30 to 50%. Also, the inhibition at 10 µM in experiment [1], in experiment [2], in experiment [3], in experiment [4], in experiment [5] and in experiment [6] was at least 50% each time. Moreover, the inhibition at 10 µM in experiment [7] is at least 50%. In addition, the inhibition at 30 µM was at least 50% in experiment [1] (A-431, Compound concentration: 30 μM); at least 50% in experiment [2] (Compound concentration: 30 μM); at least 50% in experiment [3] (Compound concentration: 30 μM); at least 50% in experiment [4] (Compound concentration: 30 μM); at least 50% in experiment [5] (Compound concentration: 30 μM); at least 50% in experiment [6] (B16-F10, Compound concentration: 30 μM). The inhibition at 30 µM in experiment [7] (Compound concentration: 30 μM) is at least 50%.

As for `CC1=C(CC(=O)O)c2cc(F)ccc2/C1=C\c1cccc(Oc2ccc(O)c(Cl)c2)c1` [C103, (Z)-2-(1-(3-(3-Chloro-4-hydroxyphenoxy)benzylidene)-5-fluoro-2-methyl-1H-inden-3-yl)acetic acid], the inhibition at 3.3 µM is 30 to 50% in experiment [1]; under 30% in experiment [2]; under 30% in experiment [3]; under 30% in experiment [4]; 30 to 50% in experiment [5]; at least 50% in experiment [6]. Besides, in experiment [7], the inhibition at 3.3 µM was under 30%. Moreover, the inhibition at 10 µM in experiment [1], in experiment [2], in experiment [3], in experiment [4], in experiment [5] and in experiment [6] was at least 50% in each case. In experiment [7], the inhibition at 10 µM is at least 50%.
